Experimental data reported in article PMC3228860, “Mitochondrial NAD^+-dependent malic enzyme from Anopheles stephensi: a possible novel target for malaria mosquito control” (2011).

Target: mitochondrial NAD+-dependent malic enzyme (ME)
Test: NADH formation at […] nm, mitochondrial lysate, Ki from reciprocal plots
Assay type: biochemical, Anopheles stephensi

## O=C(O)CC(=O)C(=O)O [Oxaloacetate]
  Ki: 120 nM

## O=C(O)C(=O)O [Oxalate]
  Ki: 150 nM

## O=C(O)C(O)C(=O)O [Tartronate]
  Ki: 610 nM
